Consider 5 substances from US20230263822A1, “MODULATION OF FACTOR 11 EXPRESSION” (Ionis Pharmaceuticals, Inc., priority 2008, published 2023).

Series [1] in a line: Tolerability in Sprague-Dawley rats: liver function (Example 42). Particulars: 50 mg/kg s.c. twice per week for 6 weeks, plasma.
The nature of series [2]: Tolerability in Sprague-Dawley rats: kidney function (Example 42). Particulars: 50 mg/kg s.c. twice per week for 6 weeks; for BUN / Creatinine: plasma.
A short description of series [3]: Tolerability in Sprague-Dawley rats: body weight and organ weight (Example 42). Particulars: 50 mg/kg s.c. twice per week for 6 weeks; for Change in Kidney weight / Change in Liver weight / Change in Spleen weight: end of study; for Change in body weight: percent increase over the PBS control weight.
Series [4] can be described thus: Tail bleeding assay vs warfarin (Example 12). Particulars: mouse, in vivo; for Blood (tail bleeding, collected over 40 minutes): sc. As for the experimental part: A separate control group of BALB/c mice was treated with PBS, administered subcutaneously twice a week for 3 weeks.
Mice were anesthetized in the chamber with isoflurane and a small piece of tail (approximately 4 mm from the tip) was cut with sterile scissors. The tail cut was immediately placed in a 15 mL Falcon tube filled with approximately 10 mL of 0.9% NaCl buffer solution warmed to 37° C. The blood was collected over the course of 40 minutes. The saline filled tubes were weighed both before and after bleeding.

The subject of another series is blood coagulation. Briefly: PT and aPTT vs warfarin (Example 13). It is filed as in vivo, BALB/c mice. The conditions noted are these: for PT INR / aPTT INR: PPP two days after final dose. As for the experimental part: In a control group, BALB/c mice were treated with PBS, administered subcutaneously mice twice a week for 3 weeks.
Two days after the final dose was administered, PPP was collected and PT and aPTT assays were performed.
PT and aPTT values provided in Table 16 are reported as International Normalized Ratio (INR) values. […] This ratio was then raised to the power of the International Sensitivity Index (ISI) of the tissue factor used.

Series [5] can be described thus: Collagenase-induced intracerebral hemorrhage model: hemorrhage volume, neurologic deficit score, mortality (Example 25). It is filed as in vivo, BALB/c mice. On the procedure:
In a first cohort, ISIS 404071 was administered subcutaneously to BALB/c mice twice a week for two weeks at a dose 40 mg/kg. […] In a third cohort, ISIS 421208 ([…], 8 mismatches to murine Factor 11, incorporated herein as SEQ ID NO: 14) was administered subcutaneously to BALB/c mice twice a week for two weeks at a dose 40 mg/kg. In a fourth cohort, PBS was administered to BALB/c mice twice a week for two weeks.
Two days after receiving their final dose, all mice in all cohorts were anesthetized with […] of avertin. Next, the mice were injected at −1 mm AP, 1 mm R ML, −4 mm DV from bregma flat skull with a 10 μL Hamilton syringe containing 0.075 U collagenase (150 U/mL). Collagenase was delivered over 5 minutes and the needle was kept in place for an additional 5 minutes to prevent reflux. The mice were then analyzed for hemorrhagic size, neurologic deficit score, and mortality.
Table 37 presents the hemorrhage volume detected in mice after collagenase treatment, Table 38 presents the neurologic deficit score of the mice, and Table 39 presents the mortality rate of the mice. Neurological deficit is measured by a standard scoring system where no deficiency is zero and severe deficit is five.

In series [6] the test system is IL-1β, IL-6, IFN-γ, TNF-α, IL-8, MIP-1α, MCP-1, MIP-1β, RANTES. Briefly: Cytokine and chemokine assays in cynomolgus monkeys (Example 45). The class given is in vivo. The conditions noted are these: escalating dose regimen. As for the experimental part: Groups, each consisting of two male and three female monkeys, were injected subcutaneously with ISIS 416838, ISIS 416850, ISIS 416858, ISIS 416864, or ISIS 417002 in escalating doses. Antisense oligonucleotide was administered to the monkeys at 5 mg/kg three times per a week for week 1; 5 mg/kg twice per week for weeks 2 and 3; 10 mg/kg three times per week for week 4; 10 mg/kg twice per week for weeks 5 and 6; 25 mg/kg three times per week for week 7; and 25 mg/kg twice per week for weeks 8, 9, 10, 11, and 12. One control group, consisting of two male and three female monkeys, was injected subcutaneously with PBS according to the same dosing regimen. An additional experimental group, consisting of two male and three female monkeys, was injected subcutaneously with ISIS 416850 in a chronic, lower dose regimen. Antisense oligonucleotide was administered to the monkeys at 5 mg/kg three times per week for week 1; 5 mg/kg twice per week for week 2 and 3; 10 mg/kg three times per week for week 4; and 10 mg/kg twice per week for weeks 5 to 12. Body weights were measured weekly. Blood samples were collected 14 days and 5 days before the start of treatment and subsequently once per week for Factor 11 protein activity analysis in plasma, fibrinogen measurement, PT and aPTT measurements, bleeding times, and measurement of various hematologic factors. On day 85, the monkeys were euthanized by exsanguination while under deep anesthesia, and organs harvested for further analysis.
Blood samples obtained from the monkey groups treated with PBS, ISIS 416850 and ISIS 416858 administered in the escalating dose regimen were sent to Pierce Biotechnology (Woburn, Mass.) for measurement of chemokine and cytokine levels. Levels of IL-1β, IL-6, IFN-γ, and TNF-α were measured using the respective primate antibodies and levels of IL-8, MIP-1α, MCP-1, MIP-1β and RANTES were measured using the respective cross-reacting human antibodies. Measurements were taken 14 days before the start of treatment and on day 85, when the monkeys were euthanized.

Setting [7] is: BALB/c mice, ISIS 404071 1.25-40 mg/kg, warfarin 0.5-5 mg/kg.
Where [8] appears, read: ISIS 404071 1.25 mg/kg subcutaneously twice a week for 3 weeks.
[9] abbreviates: ISIS 404071 5 mg/kg subcutaneously twice a week for 3 weeks.
Setting [10] is: ISIS 404071 10 mg/kg subcutaneously twice a week for 3 weeks.
Where [11] appears, read: ISIS 404071 20 mg/kg subcutaneously twice a week for 3 weeks.
[12] abbreviates: ISIS 404071 40 mg/kg subcutaneously twice a week for 3 weeks.
Where [13] appears, read: collagenase-induced intracerebral hemorrhage, 40 mg/kg twice a week for two weeks.
The mark [14] stands for this setting: day −14 (before start of treatment).

Strand notation (5' to 3'): a small letter for the sugar, then the base; units joined by * are phosphorothioate-linked, units joined directly phosphodiester-linked; [ ] holds rarer units or linkages, { } end groups; capitals alone tell only the bases. e = 2'-O-(2-methoxyethyl) (MOE); [5mC] = 5-methylcytosine; d = 2'-deoxy (DNA)

In series [1], “ISIS 445522: 5-8-5 or 6-8-6 MOE microwalk gapmer (Table 44) (antisense eG*e[5mC]*eA*e[5mC]*eA*dG*dT*dT*dT*d[5mC]*dT*dG*dG*e[5mC]*eA*eG*eG*e[5mC])” yielded an ALT of 240 IU/L, an AST of 138 IU/L, an Albumin of 3.6 and a Bilirubin of 0.47 mg/dL. Besides, in series [2], the BUN is listed as 25 mg/dL, the Creatinine came to 0.4 mg/dL and the Urine protein/creatinine ratio amounted to 6.4. In series [3], the “Change in Kidney weight” value was “+19%”, the “Change in Liver weight” value is “+26%”, the “Change in Spleen weight” value was “+184%” and the “Change in body weight” value is −13%.

Regarding “ISIS 404071: antisense oligonucleotide targeted to murine Factor 11 mRNA, TGGTAATCCACTTTCAGAGG, target start site 869 (chemistry not given here)”, the “bleeding in tail bleeding assay” value in series [4] is on record as “did not affect bleeding”. The “Blood (tail bleeding, collected over 40 minutes)” value in series [4] (1.25 mg/kg) is given as 0.00 g; in series [4] (5 mg/kg), 0.03 g; in series [4] (10 mg/kg), 0.00 g; in series [4] (20 mg/kg) it was 0.06 g; in series [4] (40 mg/kg), 0.03 g. Further, in the series with blood coagulation (setting [7]), the “PT” value is “did not significantly affect PT”. Further, the “aPTT” value with blood coagulation (setting [7]) is recorded as “did prolong aPTT”. In addition, the “PT INR” value in the series with blood coagulation (setting [8]) stood at 0.99 INR; in the series on blood coagulation (setting [9]), 1.07 INR; in the series on blood coagulation (setting [10]), 1.08 INR; with blood coagulation (setting [11]), 1.09 INR; in the series with blood coagulation (setting [12]), 0.98 INR. The “aPTT INR” value stood at 0.98 INR in the series with blood coagulation (setting [8]); 1.09 INR in the series with blood coagulation (setting [9]); 1.29 INR with blood coagulation (setting [10]); 1.32 INR with blood coagulation (setting [11]); 1.64 INR in the series on blood coagulation (setting [12]). For the same substance, the “Hemorrhagic volume after collagenase treatment” value in series [5] (40 mg/kg s.c. twice a week for two weeks) is listed as 38 mm^3. In series [5] (40 mg/kg s.c. twice a week for two weeks, score zero (no deficiency) to five (severe deficit)), the “Neurologic Deficit Score after collagenase treatment” value worked out at 3.8. Besides, in series [5] (ISIS oligonucleotides 40 mg/kg s.c., warfarin 2 mg/kg intraperitoneally, twice a week for two weeks), the “% mortality after collagenase treatment” value was 20%. For the same substance, the “hemorrhagic size” value in series [5] (setting [13]) is “did not have a significant effect”. For the same substance, the “mortality” value in series [5] (setting [13]) is “did not have a significant effect”. Moreover, the “neurologic deficit score” value in series [5] (setting [13]) is given as “did not have a significant effect”.

Regarding “ISIS 416858: MOE gapmer, nucleobases 1275 to 1318 of SEQ ID NO: 1 (Table 8) (antisense ACGGCATTGGTGCACAGTTT; MOE gapmer, wing and gap sizes not given here)”, in series [6] (day 85), the IFN-γ level turned out to be 18 pg/mL, the IL-1β level is 5 pg/mL, the IL-6 level was found to be 25 pg/mL and the IL-8 level is listed as 303 pg/mL. Further, in series [6] (day 85), the MCP-1 level was 1752 pg/mL, the MIP-1α level amounted to 41 pg/mL, the MIP-1β level came out at 221 pg/mL and the RANTES level worked out at 125511 pg/mL. The substance further returned a TNF-α level in series [6] (day 85) of 45 pg/mL. In series [6] (setting [14]), this substance gave an IFN-γ level of 60 pg/mL, an IL-1β level of 5 pg/mL, an IL-6 level of 9 pg/mL and an IL-8 level of 1552 pg/mL. Also, in series [6] (setting [14]), the MCP-1 level is recorded as 1252 pg/mL, the MIP-1α level stood at 36 pg/mL, the MIP-1β level is reported as 122 pg/mL and the RANTES level was 112253 pg/mL. Moreover, the TNF-α level in series [6] (setting [14]) is 9 pg/mL.

In series [6] (day 85), “ISIS 416850: MOE gapmer, nucleobases 1275 to 1318 of SEQ ID NO: 1 (Table 8) (antisense TGCACAGTTTCTGGCAGGCC; MOE gapmer, wing and gap sizes not given here)” had an IFN-γ level of 18 pg/mL, an IL-1β level of 13 pg/mL, an IL-6 level of 17 pg/mL and an IL-8 level of 172 pg/mL. For the same substance, in series [6] (day 85), the MCP-1 level is on record as 2330 pg/mL, the MIP-1α level came to 41 pg/mL, the MIP-1β level was determined as 216 pg/mL and the RANTES level was 83981 pg/mL. The TNF-α level in series [6] (day 85) was 27 pg/mL. In series [6] (setting [14]), the IFN-γ level stood at 126 pg/mL, the IL-1β level is listed as 3 pg/mL, the IL-6 level is 30 pg/mL and the IL-8 level was 1659 pg/mL. Also, in series [6] (setting [14]), the MCP-1 level worked out at 1384 pg/mL, the MIP-1α level is listed as 28 pg/mL, the MIP-1β level stood at 137 pg/mL and the RANTES level amounted to 75335 pg/mL. In addition, in series [6] (setting [14]), the TNF-α level came out at 14 pg/mL.

In series [1], “ISIS 445531: 5-8-5 or 6-8-6 MOE microwalk gapmer (Table 44) (antisense eG*eG*e[5mC]*eA*eT*dT*dG*dG*dT*dG*d[5mC]*dA*d[5mC]*eA*eG*eT*eT*eT)” displayed an ALT of 272 IU/L, an AST of 137 IU/L, an Albumin of 3.7 and a Bilirubin of 0.12 mg/dL. For the same substance, in series [2], the BUN is on record as 23 mg/dL, the Creatinine is 0.4 mg/dL and the Urine protein/creatinine ratio is 3.4. In series [3], the “Change in Kidney weight” value was “+4%”, the “Change in Liver weight” value is given as “+17%”, the “Change in Spleen weight” value is given as “+89%” and the “Change in body weight” value is −10%.
